From US11396511B2, “Substituted 9,13b-dihydro-1H-dibenzo[c,f]imidazo[1,5-a]azepin-3-ylbenzamides as anti-inflammatory and analgesic agents” (FRONTBIO CO., LTD., priority 2017, dated 2022)

Assays:
[1] = test system: anticancer drug-induced peripheral neuropathy models (vincristine); assay: Von-frey test in anticancer drug-induced peripheral neuropathy models; format: in vivo, mice; design: threshold values (Von-frey test): unit not given here
From the text: Vincristine is an anticancer drug that is widely used to treat malignant tumors, including breast cancer, leukemia, lymphoma, and primary brain tumor. However, vincristine was reported to cause neurotoxicity in peripheral nervous fibers and sensory or motor neuropathy after use. The anticancer drug vincristine is known to cause predictable and consistent neurotoxicity in all patients, particularly patients treated with therapeutic doses. When a patient receives a dose of vincristine, paresthesia accompanied by pain is first observed in proportion to the dose. As neuropathy develops, axons are lost together with motor function. Vincristine is also known to induce hypersensitivity of C nerve fiber nociceptors in the peripheral nervous system. Neuropathy was induced by administration of vincristine. First, 0.05 mg/kg of vincristine was administered intraperitoneally. Thereafter, vincristine was administered intraperitoneally twice a week for 6 weeks (0.125 mg/kg each). Neuropathic pain began to appear at week 3 after administration and significant pain was reported at week 4. The degree of neuropathic pain was measured through the […] (Junzo et al., 2005).
After damage to the sciatic nerve, allodynia induced by the mechanical stimulus was measured. Mice were housed in acrylic chambers on a steel mesh floor and acclimated for ≥60 min before testing. Continuous responses were evaluated using Von-frey filaments by the up-down method. The filaments were brought into vertical contact with the affected left soles and the contact was maintained for 5-6 sec. The response was considered to be positive when the mouse rapidly avoided the stimulus, startled or licked its sole. The Von-frey filaments were first used to stimulate the mice.
The analgesic efficacies of the test substances were evaluated in anticancer drug-induced peripheral neuropathy models. To this end, after oral administration of each test substance at concentrations of 10, 20, 40, and 80 mg/kg, threshold values were measured at different periods of time through Von-frey test.

mice [2] = assay: Formalin test (5% formalin, hind foot sole); format: in vivo; design: formalin test pain response: unit not given beside the values; conditions: for analgesic efficacy in formalin test (in words): 10, 20, 40, 80 mg/kg
Method: 5% formalin was injected subcutaneously into the soles of the hind feet of mice. The mice licked their soles and shook their paws owing to formalin-induced pain. At 20-40 min post-injection (2nd phase), the mice again licked their soles or shook their paws. Pain felt for 5 min post-injection (1st phase) is the same level as the sensation of pain when the body is harmfully stimulated. Pain between 20 and 40 min (2nd phase) is mainly tonic inflammatory pain and is known to be very similar to pain after a big surgical operation.
30 min after pretreatment with the compound 3 (E-S) at concentrations of 10, 20, 40, and 80 mg/kg, formalin test was conducted to assess the analgesic efficacy of the compound 3. […] The analgesic efficacy of the compound 4 (E-A) was assessed in the same manner as that of the compound 3.

mice [3] = assay: Writhing test (1% acetic acid intraperitoneally); format: in vivo; conditions: for numbers of stretching and writhing movements: 30 min pretreatment
Method: In accordance with the most common method for measuring the analgesic efficacies of the test substances in the peripheral nerve based on abdominal contraction responses as indices, 1% acetic acid was administered intraperitoneally to mice to induce damage or pain of the abdominal peripheral vessels. After acetic acid administration, the behavioral profiles of the mice were observed and the numbers of stretching and writhing movements of the mice were counted to determine the analgesic efficacies of the test substances.
30 min after pretreatment with the compound 3 (E-S) at concentrations of 10, 20, 40, and 80 mg/kg, writhing test was conducted to assess the analgesic efficacy of the compound 3. As a result, the analgesic efficacy of the compound 3 was concentration-dependent (FIG. 4a and Table 4). The analgesic efficacy of the compound 4 (E-A) was assessed in the same manner as that of the compound 3.

Raw 264.7 cells = assay: Cell viability measurement (MTS); format: cell-based
Method: Raw 264.7 cells were plated in a 96-well cell culture plate (50,000 cells/well). The cell culture media were removed from the 96-well cell culture plate. 100 μl of MTS reagent (CellTiter 96 AQueous One Solution Cell Proliferation Assay, Promega) was added to each well and the reaction was allowed to proceed at 37° C. for 20 min. After the reaction was finished, the cell viability were determined by measuring the absorbance at a wavelength of 490 nm.

[4] = 10 mg/kg, first column group (1st phase, not given)
[5] = 10 mg/kg, second column group (2nd phase, not given)
[6] = 20 mg/kg, first column group (1st phase, not given)
[7] = 20 mg/kg, second column group (2nd phase, not given)
[8] = 40 mg/kg, first column group (1st phase, not given)
[9] = 40 mg/kg, second column group (2nd phase, not given)
[10] = 80 mg/kg, first column group (1st phase, not given)
[11] = 80 mg/kg, second column group (2nd phase, not given)

## O=C(NC1=NCC2c3ccccc3Cc3ccccc3N12)c1ccccc1O (centres unmarked) [E-S, N-(9,13b-dihydro-1H-dibenzo[c,f]imidazo[1,5-a]azepin-3-yl)-2-hydroxybenzamide]
[1]; 1 h after treatment, oral 10, 20, 40, 80 mg/kg tested
  concentration of highest analgesic efficacy, Von-frey test: 80 mg/kg
[1]; oral 10 mg/kg, 1 h
  threshold values (Von-frey test): 0.110
[1]; oral 10 mg/kg, 2 h
  threshold values (Von-frey test): 0.163
[1]; oral 10 mg/kg, 3 h
  threshold values (Von-frey test): 0.180
[1]; oral 10 mg/kg, 4 h
  threshold values (Von-frey test): 0.145
[1]; oral 10 mg/kg, 5 h
  threshold values (Von-frey test): 0.135
[1]; oral 10 mg/kg, basal
  threshold values (Von-frey test): 0.113
[1]; oral 20 mg/kg, 1 h
  threshold values (Von-frey test): 0.173
[1]; oral 20 mg/kg, 2 h
  threshold values (Von-frey test): 0.208
[1]; oral 20 mg/kg, 3 h
  threshold values (Von-frey test): 0.191
[1]; oral 20 mg/kg, 4 h
  threshold values (Von-frey test): 0.137
[1]; oral 20 mg/kg, 5 h
  threshold values (Von-frey test): 0.194
[1]; oral 20 mg/kg, basal
  threshold values (Von-frey test): 0.157
[1]; oral 40 mg/kg, 1 h
  threshold values (Von-frey test): 0.324
[1]; oral 40 mg/kg, 2 h
  threshold values (Von-frey test): 0.306
[1]; oral 40 mg/kg, 3 h
  threshold values (Von-frey test): 0.270
[1]; oral 40 mg/kg, 4 h
  threshold values (Von-frey test): 0.239
[1]; oral 40 mg/kg, 5 h
  threshold values (Von-frey test): 0.194
[1]; oral 40 mg/kg, basal
  threshold values (Von-frey test): 0.173
[1]; oral 80 mg/kg, 1 h
  threshold values (Von-frey test): 0.408
[1]; oral 80 mg/kg, 2 h
  threshold values (Von-frey test): 0.385
[1]; oral 80 mg/kg, 3 h
  threshold values (Von-frey test): 0.390
[1]; oral 80 mg/kg, 4 h
  threshold values (Von-frey test): 0.239
[1]; oral 80 mg/kg, 5 h
  threshold values (Von-frey test): 0.242
[1]; oral 80 mg/kg, basal
  threshold values (Von-frey test): 0.176
[1]; oral 10, 20, 40, 80 mg/kg
  analgesic efficacy, Von-frey test (in words): concentration-dependent until 1 h after treatment and was maintained until 3 h after treatment
Mice [2]; [4]
  formalin test pain response: 66.25
Mice [2]; [5]
  formalin test pain response: 48.5
Mice [2]; [6]
  formalin test pain response: 60.5
Mice [2]; [7]
  formalin test pain response: 48.25
Mice [2]; [8]
  formalin test pain response: 60.5
Mice [2]; [9]
  formalin test pain response: 45.0
Mice [2]; [10]
  formalin test pain response: 52.0
Mice [2]; [11]
  formalin test pain response: 44.5
Mice [2]
  analgesic efficacy in formalin test (in words): observed in the 2nd phase
Mice [3]; 10 mg/kg
  numbers of stretching and writhing movements: 33.75
Mice [3]; 20 mg/kg
  numbers of stretching and writhing movements: 29.75
Mice [3]; 40 mg/kg
  numbers of stretching and writhing movements: 23.75
Mice [3]; 80 mg/kg
  numbers of stretching and writhing movements: 12.75
Mice [3]; 10, 20, 40, 80 mg/kg
  analgesic efficacy in writhing test (in words): concentration-dependent
Raw 264.7 cells
  cell toxicity (cell viability, MTS): no cell toxicities were observed

## CC(=O)Oc1ccccc1C(=O)NC1=NCC2c3ccccc3Cc3ccccc3N12 (centres unmarked) [E-A, 2-((9,13b-dihydro-1H-dibenzo[c,f]imidazo[1,5-a]azepin-3-yl)carbamoyl)phenyl acetate]
Mice [2]; [4]
  formalin test pain response: 73.0
Mice [2]; [5]
  formalin test pain response: 102.0
Mice [2]; [6]
  formalin test pain response: 54.7
Mice [2]; [7]
  formalin test pain response: 83.5
Mice [2]; [8]
  formalin test pain response: 62.0
Mice [2]; [9]
  formalin test pain response: 60.0
Mice [2]; [10]
  formalin test pain response: 61.5
Mice [2]; [11]
  formalin test pain response: 60.0
Mice [2]
  analgesic efficacy in formalin test (in words): observed in the 2n^d phase
Mice [3]; 10 mg/kg
  numbers of stretching and writhing movements: 8.25
Mice [3]; 20 mg/kg
  numbers of stretching and writhing movements: 13.75
Mice [3]; 40 mg/kg
  numbers of stretching and writhing movements: 11.25
Mice [3]; 80 mg/kg
  numbers of stretching and writhing movements: 12.25
Mice [3]; 10, 20, 40, 80 mg/kg tested
  concentration of best analgesic efficacy in writhing test: 10 mg/kg
Raw 264.7 cells
  cell toxicity (cell viability, MTS): no cell toxicities were observed
